Source: article PMC6417734 (PLoS ONE, 2019)
Where “and” joins values, the source holds several entries; their conditions need not be identical. Identical values can stand only once. Like-named read-outs stand apart in the source and are kept apart here.

Assays:
[1] = Stability in spiked rat plasma under different storage conditions; format: physicochemical; conditions: for stability in spiked rat plasma, short term and long term storage: LQC and HQC, room temperature and -80 °C for 30 days, acceptance within ±15%; for stability of processed plasma samples in autosampler and after freeze-thaw cycles: autosampler for 24 h, three freeze-thaw cycles; for Processed samples (24 h) Accuracy (%): processed rat plasma samples, autosampler at 10 °C; for long term (1 month) Accuracy (%) / Short term (8 h) Accuracy (%) / Freeze/Thaw (3 cycle) Accuracy (%): spiked rat plasma; for long term (1 month) Accuracy (%): -80 °C for 30 days; for Short term (8 h) Accuracy (%): room temperature; for Freeze/Thaw (3 cycle) Accuracy (%): three cycle from -80 °C to room temperature
Description: The short-term (at room temperature for 8 h); post preparation (in autosampler at 10 °C for 24 h), freeze-thaw (three cycle from ─80 °C to room temperature) and long-term (─80 °C for 30 days) stabilities were determined. All stabilities results were measured against freshly spiked CCs and acceptance were limited to be within ±15%.

[2] = Oral pharmacokinetic study in rats (plasma, UPHILIC-MS/MS, non-compartmental analysis); format: in vivo, wistar albino rats; conditions: for thalf: in h (unit assumed); for Kel: in h-1 (unit assumed); for AUClast / AUCtot: in ng·h/mL
Description: Six healthy rats weighing between 180–220 g were received and maintained under standard laboratory conditions before the experiments. […] Blood samples (approx.0.5 ml) were collected at 0, 0.33, 0.66, 1, 2, 3, 5, 8, 12 and 24 h in lithium heparinized tubes after dosing. Plasma was separated by centrifugation for 8 min at 4000 rpm and stored at −80 °C till further analysis.
The non-compartmental model was used to calculate the pharmacokinetic parameters using WinNonlin software (Pharsight Co., Mountain View, CA, USA). The maximum plasma concentration (Cmax), time to achieve this (Tmax), area under curve zero to last and infinity (AUC0-24; AUC0-∞), half-life (T½), elimination rate constant (Kel) and mean residence time were measured. Statistical parameters like mean, standard deviation and % RSD were calculated by using MS-Excel 2013 (Microsoft).

SUA levels = conditions: ALP dose of 300 mg/day; ref [10]–[12]; cited from earlier work
[3] = HQC nominal value (ALP 7000, OXP 10000, LES 8000 ng/mL)
[4] = LQC nominal value (ALP 70, OXP 100, LES 80 ng/mL)
[5] = Mean of six rats (supplement), oral ALP 20 mg/kg and LES 15 mg/kg
[6] = Wistar albino, rat, plasma, po, rat plasma, oral co-administration of ALP 20 mg/kg and LES 15 mg/kg, mean ± SD, six rats, read-out: Cmax
[7] = Wistar albino, rat, plasma, po, rat plasma, oral co-administration of ALP 20 mg/kg and LES 15 mg/kg, mean ± SD, read-out: AUC0-24
[8] = Wistar albino, rat, plasma, po, rat plasma, oral co-administration of ALP 20 mg/kg and LES 15 mg/kg, mean ± SD, read-out: MRT
[9] = Wistar albino, rat, plasma, po, rat plasma, oral co-administration of ALP 20 mg/kg and LES 15 mg/kg, six rats, read-out: Tmax
[10] = individual animal (rats R1-R6), oral ALP 20 mg/kg and LES 15 mg/kg, in h
[11] = individual animal (rats R1-R6), oral ALP 20 mg/kg and LES 15 mg/kg
[12] = individual animal (rats R1-R6), oral ALP 20 mg/kg and LES 15 mg/kg, in ng/mL
[13] = Wistar albino, rat, plasma, po, 20 mg/kg, Mean line of six rats (supplement), oral ALP 20 mg/kg and LES 15 mg/kg, read-out: Tmax
[14] = Wistar albino, rat, plasma, po, 20 mg/kg, Mean of six rats (supplement), oral ALP 20 mg/kg and LES 15 mg/kg
[15] = Wistar albino, rat, plasma, po, 20 mg/kg, Mean of six rats (supplement), oral ALP 20 mg/kg and LES 15 mg/kg, read-out: AUClast
[16] = Wistar albino, rat, plasma, po, 20 mg/kg, Mean of six rats (supplement), oral ALP 20 mg/kg and LES 15 mg/kg, read-out: Cmax
[17] = Wistar albino, rat, plasma, po, 20 mg/kg, Mean of six rats (supplement), oral ALP 20 mg/kg and LES 15 mg/kg, read-out: MRT
[18] = Wistar albino, rat, plasma, po, 20 mg/kg, individual animal (rats R1-R6), oral ALP 20 mg/kg and LES 15 mg/kg
[19] = Wistar albino, rat, plasma, po, 20 mg/kg, individual animal (rats R1-R6), oral ALP 20 mg/kg and LES 15 mg/kg, read-out: AUClast
[20] = Wistar albino, rat, plasma, po, 20 mg/kg, individual animal (rats R1-R6), oral ALP 20 mg/kg and LES 15 mg/kg, read-out: Cmax
[21] = Wistar albino, rat, plasma, po, 20 mg/kg, individual animal (rats R1-R6), oral ALP 20 mg/kg and LES 15 mg/kg, read-out: MRT
[22] = Wistar albino, rat, plasma, po, 20 mg/kg, rats, oral ALP 20 mg/kg, read-out: Tmax

Compound	stability in spiked rat plasma, short term and long term storage [1]	stability of processed plasma samples in autosampler and after freeze-thaw cycles [1]	Processed samples (24 h) Accuracy (%) [1, 3]	Processed samples (24 h) Accuracy (%) [1, 4]	long term (1 month) Accuracy (%) [1, 3]	Short term (8 h) Accuracy (%) [1, 3]	Freeze/Thaw (3 cycle) Accuracy (%) [1, 3]	long term (1 month) Accuracy (%) [1, 4]	Short term (8 h) Accuracy (%) [1, 4]	Freeze/Thaw (3 cycle) Accuracy (%) [1, 4]	Kel [2, 5]	Cmax [2, 6]	AUC(0-t) [2, 7]	MRT [2, 8]	Tmax [2, 9]	MRT [2, 10]	Tmax [2, 10]	Cmax [2, 12]	AUClast [2, 11]	AUCtot [2, 11]	also measured
O=C(O)CSc1nnc(Br)n1-c1ccc(C2CC2)c2ccccc12 [LES, Lesinurad]	acceptable limits	stable	97.01%	112.54%	88.59%	95.12%	90.13%	89.81%	91.26%	94.8%	0.09441	8270 ± 191 ng/mL	65910 ± 139 ng·h/mL	12.4 ± 4.51 h	1.5 h	20.1145 and 8.709 and 12.6844 and 8.471 and 9.848 and 14.9899	1 and 3 and 2 and 5 and 0.66	5494.01 and 8320.88 and 6878.96 and 11031.4 and 8808.81 and 9091.69	64836.4 and 61847.4 and 85561.6 and 56410.3 and 78552.6	68738 and 73776.1 and 90181.7 and 60657.3 and 99665.6	thalf [2, 5]: 8.497; Tmax ([2]; Wistar albino, rat, plasma, po, 15 mg/kg, Mean line of six rats (supplement), oral ALP 20 mg/kg and LES 15 mg/kg, read-out: Tmax): 1.5 h; AUC ([2]; Wistar albino, rat, plasma, po, 15 mg/kg, Mean of six rats (supplement), oral ALP 20 mg/kg and LES 15 mg/kg): 77100 ng·h/mL; AUC(0-t) ([2]; Wistar albino, rat, plasma, po, 15 mg/kg, Mean of six rats (supplement), oral ALP 20 mg/kg and LES 15 mg/kg, read-out: AUClast): 65900 ng·h/mL; Cmax ([2]; Wistar albino, rat, plasma, po, 15 mg/kg, Mean of six rats (supplement), oral ALP 20 mg/kg and LES 15 mg/kg, read-out: Cmax): 8270 ng/mL; MRT ([2]; Wistar albino, rat, plasma, po, 15 mg/kg, Mean of six rats (supplement), oral ALP 20 mg/kg and LES 15 mg/kg, read-out: MRT): 12.5 h; AUC ([2]; Wistar albino, rat, plasma, po, 15 mg/kg, individual animal (rats R1-R6), oral ALP 20 mg/kg and LES 15 mg/kg): 69800 ng·h/mL; AUC(0-t) ([2]; Wistar albino, rat, plasma, po, 15 mg/kg, individual animal (rats R1-R6), oral ALP 20 mg/kg and LES 15 mg/kg, read-out: AUClast): 48200 ng·h/mL; thalf [2, 11]: 13.589 and 5.574 and 9.1146 and 5.126 and 5.707 and 11.8685; Kel [2, 11]: 0.05101 and 0.1244 and 0.07605 and 0.1352 and 0.1214 and 0.0584; ratios of AUC (AUC0-24/ AUC0-∞) ([2]; rats, oral ALP 20 mg/kg and LES 15 mg/kg): ≥ 85%
Oc1ncnc2[nH]ncc12 [ALP, Allopurinol]	acceptable limits	stable	99.34%	96.54%	88.71%	90.84%	100.54%	87.23%	93.08%	108.60%	0.5391	2030 ± 509 ng/mL	3510 ± 571 ng·h/mL	1.98 ± 0.32 h	0.66 h	1.607 and 2.233 and 2.477 and 1.777 and 1.801	–	1667.45 and 2378.66 and 2694.26 and 2321.62 and 1731.2	2635.21 and 3641.95 and 4404.97 and 3470.35 and 3598.67	2743.88 and 3774.36 and 4653.35 and 3656.48 and 3742.26	Tmax [2, 13]: 0.66 h; AUC [2, 14]: 3660 ng·h/mL; AUC(0-t) [2, 15]: 3510 ng·h/mL; Cmax [2, 16]: 2030 ng/mL; MRT [2, 17]: 1.99 h; AUC [2, 18]: 3390 ng·h/mL; AUC(0-t) [2, 19]: 3320 ng·h/mL; Cmax [2, 20]: 1380 ng/mL; MRT [2, 21]: 2.04 h; Tmax ([2]; Wistar albino, rat, plasma, po, 20 mg/kg, individual animal (rats R1-R6), oral ALP 20 mg/kg and LES 15 mg/kg, read-out: Tmax): 0.33 h; Tmax [2, 22]: 0.66 h; Kel [2, 11]: 0.3461; detectability in plasma after administration ([2]; rats, post administration of 20 mg/kg of ALP): undetectable after 8 h; patients who do not achieve sustained reductions in SUA levels (< 6 mg/dL) (SUA levels): > 50%
O=c1[nH]c(=O)c2c[nH]nc2[nH]1 [OXP, oxypurinol]	acceptable limits	stable	102.65%	104.72%	91.04%	95.12%	92.67%	92.43%	96.85%	102.55%	0.1191	7500 ± 156 ng/mL	44800 ± 373 ng·h/mL	7.58 ± 1.52 h	2 h	6.956 and 5.837 and 6.059 and 8.731 and 9.5786	3 and 0.66 and 1	7192.39 and 10535.3 and 7573.56 and 6585.93 and 6831.19	49418.6 and 48647.7 and 44044.7 and 42639.7 and 44576.2	50759.5 and 50350.9 and 45393.1 and 45993.3 and 50026.1	Tmax [2, 13]: 2 h; AUC [2, 14]: 47400 ng·h/mL; AUC(0-t) [2, 15]: 44800 ng·h/mL; Cmax [2, 16]: 7500 ng/mL; MRT [2, 17]: 7.58 h; AUC [2, 18]: 41900 ng·h/mL; AUC(0-t) [2, 19]: 39500 ng·h/mL; Cmax [2, 20]: 6250 ng/mL; MRT [2, 21]: 8.33 h; Tmax [2, 22]: 2 h
